Experimental data: US20230278957A1, “TREX1 INHIBITORS AND USES THEREOF” (WAKE FOREST UNIVERSITY HEALTH SCIENCES, priority 2020, published 2023)
Read-outs that look alike come from different tables or passages of the source.

Experiments:
[1] = molecular target: T1, recombinant hTREX1(1-242)WT (hT1) (Homo sapiens, UniProt Q9NSU2); experiment: fluorescence-based exonuclease assay, hTREX1 IC50 and HTS; format: biochemical
T1 construct: recombinant hTREX1(1-242)^WT
T1 sequence (Q9NSU2 1-242): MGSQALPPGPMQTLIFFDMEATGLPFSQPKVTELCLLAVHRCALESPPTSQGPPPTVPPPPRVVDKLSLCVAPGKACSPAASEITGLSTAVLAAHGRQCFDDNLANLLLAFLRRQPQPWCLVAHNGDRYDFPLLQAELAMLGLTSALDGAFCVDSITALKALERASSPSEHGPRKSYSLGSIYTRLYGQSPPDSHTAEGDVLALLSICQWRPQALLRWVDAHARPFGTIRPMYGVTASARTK
Experimental: FIG. 1: Determining IC50 of Candidate Compounds. […] Standard time-course reactions were prepared in 150 µL volumes containing vehicle or indicated concentrations of inhibitor (Panel A= 0.1-10 µM; Panel C= 1-50 µM), incubated 1 hr at room temperature, and 20 µL samples of each reaction taken at time-points of 0, 5, 10, 20, 30, 45, & 60 minutes and quenched in 20 µL of 15X SYBR Green. Fluorescence was measured, and fluorescence versus time plots were normalized to maximal initial fluorescence and background fluorescence. Plots were fitted with nonlinear regression, then initial velocities of each reaction interpolated and normalized to vehicle-only control reactions to give percent activity. Plots of inhibitor concentration versus percent activity were fit with nonlinear regression to interpolate compound IC50. Plots were generated in Prism (GraphPad) and combined in PowerPoint. Active compounds had IC50 determined in at least three separate experiments. Panels E-F: Gel Assay Validation of Hit Compound IC50. Several hit compounds, including those shown, had their IC50 confirmed via gel assay to validate efficacy of the fluorescence-based biochemical assay. Results of the gel and fluorescence assays were in agreement for all compounds tested. Standard time-course reactions containing nicked plasmid were prepared in 150 µL volumes with the indicated concentrations of inhibitor, and incubated at room temperature. Reaction samples were taken at indicated times, quenched, dried in vacuo, resuspended, then visualized by agarose gel electrophoresis. Control lanes containing supercoiled dsDNA plasmid (‘Plasmid’) and undegraded nicked dsDNA plasmid (‘Nicked’) are included. Low-MW residual bands are ssDNA plasmid leftover from TREX1 exonuclease activity.
We altered a reported fluorescence-based exonuclease assay^17,23 for the purposes of HTS. The assay parameters were optimized to limit materials use and maximize the dynamic range of the assay readout. We used this assay to perform a HTS of the three mentioned libraries against recombinant hTREX1(1-242)^WT, hereafter abbreviated as ‘hT1’. In the case of all libraries, compounds eliciting ≤50% activity at their indicated screening concentrations were identified as ‘candidates’.
The biochemical assay used for HTS was also applied to determining candidate IC50. Briefly, time-course reactions were performed for a range of concentrations for each candidate, and plots of fluorescence vs time were normalized to the initial fluorescence of the reaction and the plate-wide background fluorescence. This normalization helped address compounds with inherent effects on the fluorescent readout. Initial velocities were calculated from normalized plots and used to calculate percent activities relative to vehicle-only control reactions. Standard dose-response curves were then constructed to interpolate candidate IC50. […] Candidates that initially tested with IC50 ≤100 µM had their IC50 redetermined in two additional, independent experiments. […] To validate the efficacy of the fluorescence-based assay at determining IC50, several of the hit compounds had their IC50 confirmed using a gel assay previously described by our lab^23. Briefly, a dsDNA plasmid is nicked, the substrate is incubated with TREX1 which degrades off (partially or completely) the nicked strand, and the reaction is quenched in ethanol, dried in vacuo, and visualized via agarose gel electrophoresis. Example data of these validation assays is provided (FIG. 1, Panels E-F).

TREX1 = molecular target: T2, TREX1 (Homo sapiens, UniProt Q9NSU2); experiment: gel-based ssDNA degradation assay, inhibition kinetics; format: biochemical; details: 15 nM or 515 nM FAM-labeled 30-mer oligo
T2 sequence (Q9NSU2 1-242): T1 sequence (Q9NSU2 1-242)
Experimental: Reactions are incubated at room temperature for 20 min, quenched, dried in vacuo, resuspended, and visualized on a urea-polyacrylamide gel. Initial velocities of each reaction are calculated via densitometric analysis of the gel, and then normalized to vehicle control reactions to calculate percent activities. Dose-response plots are fitted with nonlinear regression to interpolate IC50.

IC50 ([1]; experiment 1, read-out: IC50 #1): 300 nM
IC50 ([1]; experiment 2, read-out: IC50 #2): 1100 nM
IC50 ([1]; experiment 3, read-out: IC50 #3): 1500 nM
IC50 ([1]; median of three independent experiments, read-out: Median IC50): 1100 nM
mechanism of inhibition classification (TREX1): mixed inhibitor
Structure (SMILES): O=C1c2ccccc2C(=O)c2c1cc(S(=O)(=O)O)c(O)c2O [TIM009]
